# From a melting point compilation (Tetko et al.; mined from patent text by program, amines drawn as free bases though some values may be those of a salt)
# Starred links: 1 amine or outer side, 2 acyl side, 3 side chain; linkers in the order of their positions; H or OH if unused. Residues, ends and D or L forms follow the SMILES beside them. *: point of attachment. 4Abz = Nc1ccc(C(=O)O)cc1; CO = O=C([*:1])[*:2]; CF3 = FC(F)(F)*
row,SMILES,melting point [°C]
1,C#Cc1cnc(OCCOc2ncnc(NS(=O)(=O)c3ccc(C(C)(C)C)cc3)c2-c2ccc(C)cc2)nc1,207 to 210
2,CN(c1ccc2sccc2c1)c1nc(=O)c2cccnc2s1,214 to 216
3,COc1ccc(CNC(=O)c2c[nH]c3ccc(N4CCCC4)nc3c2=O)cc1,270 to 272
4,COc1cc(OC)nc(C(C(N)=O)c2cccc(Cl)c2)n1 (stereo unspecified),118 to 119
5,CCN1c2ncccc2C(=O)N(C)c2ccc(-c3c[nH]c(C(N)=O)c3)nc21,284 to 285
6,CC(C)(C)c1onc(NC(=O)C2CC2)c1Cl,130 to 131
7,CCOC(=O)C(C(=O)OCC)C(C#N)(c1ccc(F)cc1)c1ccc(F)cc1,90 to 91
8,O=S(=O)(Nc1cccc(OCCc2ccc3ccccc3c2)c1)c1cccc2ccccc12,165 to 167
9,O=c1[nH][nH]c(C(F)(F)F)c1Cc1ccc2ccccc2c1,165 to 167
10,CC(=O)N1CCSC1Cc1cnn(-c2ccccc2)c1-c1ccc(Cl)cc1 (stereo unspecified),121 to 122
11,O=C(O)CN1C(=O)[C@@H](NC(CCc2ccccc2)C(=O)O)CSC1c1ccccc1 (stereo partly specified),132 to 138
12,COC(=O)CCCc1cc2nc(C(F)(F)F)ccc2n1S(=O)(=O)c1ccc(Cl)cc1,97
13,CCOC(=O)c1c(C(F)F)nn(C)c1Cl,37 to 39
14,NC(=O)Cc1ccc(Oc2ccccc2)cc1,161 to 163
15,COC(C)=CC(=O)Nc1cccc(NC(C)=O)c1,167
16,CCN1c2ncc(CCc3cccnc3)cc2C(=O)N(C)c2cccnc21,79 to 80
17,CC(C)(C)c1ccc(-c2ccc3nncn3n2)cc1,270 to 275
18,COc1cc(C)c(C(O)c2c(Cl)c(Cl)nc(Cl)c2C(F)(F)F)c(OC)c1OC (stereo unspecified),131 to 135

row,SMILES,melting point [°C]
1,COc1cccc2c1CNC2,58.5 to 60
2,Cc1ccc(NC(=O)/C=C/c2ccccc2C(F)(F)F)cc1NC(=N)c1ccccc1,112 to 116
3,CC(C)(C)c1cc(N(C(=O)CCCC(=O)O)c2ccccc2)cc(C(C)(C)C)c1O,168 to 170
4,CC(C)C(NC(=O)Nc1ccc(C(=O)NCC(=O)O)cc1)C(=O)N1CCCC1C(=O)NC(C(=O)C(F)(F)F)C(C)C (stereo not drawn) ({Gly-4Abz-CO}-Val-Pro-Val-CF3; configuration not given here),98 to 128
5,COC(=O)c1cncc(SCc2ccc(OC)cc2)c1,72 to 74
6,CC(=O)N(C)c1cccc(-c2ccnc3c(C(=O)c4ccccc4)cnn23)c1,162 to 164
7,Fc1ccc2c(c1)nc(/C=C/C1CCCCC1)n2-c1ccccn1,109 to 110
8,ClC(Cl)=CCOc1cc(Cl)c(OCc2cccc(Cl)c2)c(Cl)c1,87
9,CCOC(=O)c1c(CCl)nc2sc3c(c2c1-c1ccc(OC)c(OC)c1)CCCN3C(=O)OCc1ccccc1,178 to 179
10,CCOC(=O)c1c(NC(=O)NCC(=O)OC)sc(C)c1C,151
11,OCC1OC(n2cnc3c(NCC(c4ccccc4)c4ccc(F)cc4)nc(Cl)nc32)C(O)C1O (stereo unspecified),120 to 123
12,CC(C)C(S)C(=O)NC1(C(=O)NC(Cc2ccc(-c3ccccc3)cc2)C(=O)O)CCOCC1 (stereo unspecified),161 to 163
13,COc1ccc(C(OCC2OC(n3cnc4c(=O)[nH]c(NC(=O)Cc5ccc(Cl)cc5)nc43)CC2O)(c2ccccc2)c2ccc(OC)cc2)cc1 (stereo unspecified),150 to 155
14,Nc1ccc2oc([N+](=O)[O-])c(-c3ccccc3)c2c1,125 to 127
15,CC(C)(C)C(=O)Oc1ccc(C(=O)NNC(=O)c2occ(-c3ccccc3)c2-c2ccccc2)cc1C#N,152 to 154
16,CC1(Cn2c(=O)oc3ccc(-c4ccccc4)cc32)Cn2cc([N+](=O)[O-])nc2O1 (stereo unspecified),254 to 255
17,CS(=O)(=O)c1ccc(-c2cc(=O)n(CC3CCC3)nc2-c2ccc(F)cc2)cc1,74 to 76
18,O=c1c2c(c3cccnc3n1-c1ccccc1)SCC2,277 to 279
